Experimental data as given in patent US20110059970A1, “4-PHENYL-1,3-THIAZOLES AND 4-PHENYL-1,3-OXAZOLES DERIVATIVES AS CANNABINOID RECEPTOR LIGANDS” (IPSEN PHARMA S.A.S., priority 2007, published 2011).
Where a name gives a salt, the structure may show the parent alone.

System: not given
Assay: not given
Conditions: not given

Compared with `CN1CCC(c2nc(-c3cc(C(C)(C)C)c(O)c(C(C)(C)C)c3)cs2)(N(C)C)CC1` (as salt: hydrochloride) [Example 23, 2,6-di-tert-butyl-4-{2-[4-(dimethylamino)-1-methylpiperidin-4-yl]-1,3-thiazol-4-yl}phenol hydrochloride], `CC(C)(C)c1cc(-c2csc(C3(N)CCSCC3)n2)cc(C(C)(C)C)c1O` [Example 5, 4-[2-(4-aminotetrahydro-2H-thiopyran-4-yl)-1,3-thiazol-4-yl]-2,6-di-tert-butylphenol] is lower in melting point: 236 to 238 °C for the first, 148.8 to 150.8 °C for the second.

First: CN(C)C1(c2nc(-c3ccc(Cc4ccccc4)cc3)cs2)CCOCC1 (as salt: hydrochloride) [Example 29, {4-[4-(4-benzylphenyl)-1,3-thiazol-2-yl]tetrahydro-2H-pyran-4-yl}dimethylamine hydrochloride]
Second: CN(C)C1(c2nc(-c3ccc(Sc4ccccc4)cc3)cs2)CCOCC1 (as salt: hydrochloride) [Example 33, N,N-dimethyl-4-{4-[4-(phenylthio)phenyl]-1,3-thiazol-2-yl}tetrahydro-2H-pyran-4-amine hydrochloride]
The melting point of the first is higher: 228.4 to 229.5 °C for the first, 215 to 218.8 °C for the second.

First: CN(C)C1(c2nc(-c3ccc(Oc4ccc([N+](=O)[O-])cc4)cc3)cs2)CCOCC1 (as salt: hydrochloride) [Example 32, N,N-dimethyl-4-{4-[4-(4-nitrophenoxy)phenyl]-1,3-thiazol-2-yl}tetrahydro-2H-pyran-4-amine hydrochloride]
Second: CC(C)(C)c1cc(-c2csc(C3(N)CCOCC3)n2)cc(C(C)(C)C)c1 [Example 10, {4-[4-(3,5-di-tert-butylphenyl)-1,3-thiazol-2-yl]tetrahydro-2H-pyran-4-yl}amine]
The melting point of the first is higher: 167 to 169 °C for the first, 114 to 114.4 °C for the second.

`COc1c(C(C)(C)C)cc(-c2csc(C3(N)CCOCC3)n2)cc1C(C)(C)C` [Example 1, {4-[4-(3,5-di-tert-butyl-4-methoxyphenyl)-1,3-thiazol-2-yl]tetrahydro-2H-pyran-4-yl}amine] gave a melting point of 128.4 to 129.7 °C.

Biological target: T1, human CB2 receptors (Homo sapiens, UniProt P34972)
T1 construct: expressed in transfected cells; membranes prepared from them
T1 sequence (P34972 whole entry): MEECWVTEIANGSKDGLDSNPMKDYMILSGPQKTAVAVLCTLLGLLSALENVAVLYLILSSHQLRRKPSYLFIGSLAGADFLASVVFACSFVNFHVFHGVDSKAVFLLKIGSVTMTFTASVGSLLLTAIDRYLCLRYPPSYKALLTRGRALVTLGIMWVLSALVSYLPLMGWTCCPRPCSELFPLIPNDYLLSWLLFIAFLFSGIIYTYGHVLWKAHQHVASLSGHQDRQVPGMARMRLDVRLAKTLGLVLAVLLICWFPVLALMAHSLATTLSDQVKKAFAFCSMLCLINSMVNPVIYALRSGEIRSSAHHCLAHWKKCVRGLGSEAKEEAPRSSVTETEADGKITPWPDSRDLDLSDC
Assay: Affinity for human CB2 receptors: inhibition of [3H]-CP55940 binding to membranes of transfected CHO-K1 cells
Conditions: [3H]-CP55940 (1 nM) competition, CHO-K1 membranes; IC50 converted to Ki by Cheng-Prusoff; read-out: affinity for the CB2 receptor
Procedure: Study of the Affinity of the Compounds for Human Cannabinoid CB2 Receptors
The affinity of the compounds of the invention for human CB2 receptors was determined by measuring inhibition of [^3H]-CP55940 binding to membrane preparations produced from transfected CHO-K1 cells.
CHO-K1 cells stably expressing human CB2 receptors were cultured in RPMI 1640 medium supplemented with 10% foetal calf serum, 2 mM glutamine, 100 U/ml penicillin, 0.1 mg/ml streptomycin and 0.5 mg/ml G418. The cells were collected using 0.5 mM EDTA and centrifuged at 500 g for 5 min at 4° C. The cell pellet was resuspended in phosphate buffered saline (PBS) and centrifuged at 500 g for 5 min at 4° C. The pellet was resuspended in 50 mM tris buffer pH 7.4 and centrifuged at 500 g for 5 min at 4° C. The cells were lysed by sonication and centrifuged at 39,000 g for 10 min at 4° C. The pellet was resuspended in 50 mM tris buffer pH 7.4 and centrifuged at 50,000 g for 10 min at 4° C. The membranes obtained in this final pellet were stored at −80° C.
Competitive inhibition of the binding of [^3H]-CP55940 to CB2 receptors was determined in duplicate in 96-well polypropylene plates. Cell membranes (10 μg of protein/well) were incubated with [^3H]-CP55940 (1 nM) for 60 min at 25° C. in 50 mM Tris-HCl buffer, pH 7.4, containing 0.1% bovine serum albumin (BSA), 5 mM MgCl2, and 50 μg/ml of bacitracin.
Bound [^3H]-CP55940 was separated from free [^3H]-CP55940 by filtration through GF/C fibre glass filter plates (Unifilter, Packard) pre-impregnated with 0.1% polyethylenimine (P.E.I.), using a Filtermate 196 (Packard). The filters were washed with 50 mM Tris-HCl buffer, pH 7.4 at 0-4° C. and the radioactivity present was determined using a counter (Packard Top Count).
Specific binding was obtained by subtracting non-specific binding (determined in the presence of 0.1 μM WIN55212-2) from total binding. The data were analysed by computer-assisted nonlinear regression (MDL). For each test, the IC50 value was converted to a Ki value (inhibition constant) using the Cheng-Prusoff equation.
where [L] is the concentration of the radioligand used in the assay and Kd is the dissociation constant of the radioligand at equilibrium.

Compound `CC(C)(C)c1cc(-c2csc(C3(N)CCSCC3)n2)cc(C(C)(C)C)c1O` [Example 5, 4-[2-(4-aminotetrahydro-2H-thiopyran-4-yl)-1,3-thiazol-4-yl]-2,6-di-tert-butylphenol] has a Ki of 500 to 1000 nM.
